ChEMBL document CHEMBL4680321, “Novel indolylarylsulfone derivatives as covalent HIV-1 reverse transcriptase inhibitors specifically targeting the drug-resistant mutant Y181C” (Bioorg Med Chem, 2021)
Active and inactive are the calls of the source. The rule behind the calls is not given here.

How the values were obtained:
[1] = test system: Human immunodeficiency virus 1; experiment: Antiviral activity against HIV-3B infected in human MT-4 cells assessed as reduction in virus-induced cytopathic effect incubated for 5 days by MTT assay; assay type: functional, organism-based; conditions: Human immunodeficiency virus 1, 3B, MT4, 120 h
[2] = Cytotoxicity against human MT4 cells assessed as reduction in cell viability incubated for 5 days by MTT assay; assay type: cell-based; conditions: time 5 day
[3] = test system: Human immunodeficiency virus 2; experiment: Antiviral activity against HIV2 ROD infected in human MT-4 cells assessed as reduction in virus-induced cytopathic effect incubated for 5 days by MTT assay; assay type: functional, organism-based; conditions: MT4, time 5.0 day
[4] = biological target: Human immunodeficiency virus type 1 reverse transcriptase (Human immunodeficiency virus 1, UniProt Q72547); experiment: Inhibition of recombinant HIV-1 BH10 reverse transcriptase using D38/[32P]25PGA as template-primer incubated for 5 mins in presence of DTT followed by dTTP addition and measured after 15 to 30 sec by nucleotide incorporation assay; set-up: species or system Human immunodeficiency virus type 1 BH10
[5] = Stability of compound in PBS buffer at pH 2 at 2.5 mM incubated for 24 hrs by reverse phase HPLC analysis; assay type: physicochemical; conditions: pH 2, 24 h, 2500 µM
[6] = Stability of compound in PBS buffer at pH 7.4 at 2.5 mM incubated for 24 hrs by reverse phase HPLC analysis; assay type: physicochemical; conditions: pH 7.4, 24 h, 2500 µM
[7] = test system: Human immunodeficiency virus 1; experiment: Antiviral activity against HIV-3B harboring reverse transcriptase Y181C mutant infected in human MT-4 cells assessed as reduction in virus-induced cytopathic effect incubated for 5 days by MTT assay; assay type: functional, organism-based; conditions: Human immunodeficiency virus 1, 3B, MT4, 120 h
[8] = Selectivity index, ratio of EC50 for HIV-3B infected in human MT-4 cells to EC50 for HIV-3B harboring reverse transcriptase Y181C mutant infected in human MT-4 cells; assay type: functional, Human immunodeficiency virus 1

Q: Which results are given for `C=CS(=O)(=O)N[C@@H]1CCN(S(=O)(=O)c2c(C(N)=O)[nH]c3ccc(Br)cc23)C1`?
A: EC50 [1]: > 2.1 µM; CC50 at 120 h [2]: 2.1 µM; Activity [3]: inactive

Q: For `C=CS(=O)(=O)N1CC[C@H](NS(=O)(=O)c2c(C(N)=O)[nH]c3ccc(Br)cc23)C1`, which EC50 [1] is on record?
A: Its EC50 is 9.74 µM.

Q: What about the CC50 at 120 h [2] of the same molecule?
A: Its CC50 at 120 h is 16 µM.

Q: And the Activity [3]?
A: The Activity was “inactive”.

Q: And the IC50 [4]?
A: Its IC50 is greater than 100 µM.

Q: And the Stabilty [5]?
A: Its Stabilty is “Stable”.

Q: What about the Stabilty [6] of the same molecule?
A: Its Stabilty is “Stable”.

Q: And the EC50 [7]?
A: Its EC50 is 22 µM.

Q: And the “Ratio EC50” value [8]?
A: The value was 9.3.

Q: Which EC50 [1] does the source give for `C=CS(=O)(=O)NC1CCN(S(=O)(=O)c2c(C(N)=O)[nH]c3ccc(Br)cc23)CC1` here?
A: Its EC50 is greater than 6.5 µM.

Q: What about the CC50 at 120 h [2] of the same molecule?
A: The CC50 at 120 h was 6.5 µM.

Q: What about the Activity [3] of the same molecule?
A: Its Activity is “inactive”.

Q: Which EC50 [1] does the source give for `C=CS(=O)(=O)N1CCC[C@@H](NS(=O)(=O)c2c(C(N)=O)[nH]c3ccc(Br)cc23)C1` here?
A: Its EC50 is greater than 29 µM.

Q: And the CC50 at 120 h [2]?
A: The CC50 at 120 h was 29 µM.

Q: What about the Activity [3] of the same molecule?
A: Its Activity is “inactive”.

Q: What about the IC50 [4] of the same molecule?
A: Its IC50 is greater than 100 µM.

Q: And the EC50 [7]?
A: The EC50 was 40.7 µM.

Q: What about the “Ratio EC50” value [8] of the same molecule?
A: The value was 7.7.

Q: Which EC50 [1] does the source give for `C=CC(=O)N1CC[C@H](NS(=O)(=O)c2c(C(N)=O)[nH]c3ccc(Br)cc23)C1` here?
A: The EC50 was greater than 155 µM.

Q: And the CC50 at 120 h [2]?
A: Its CC50 at 120 h is 155 µM.

Q: What about the Activity [3] of the same molecule?
A: The Activity was “inactive”.

Q: For `C=CC(=O)N1CC[C@@H](NS(=O)(=O)c2c(C(N)=O)[nH]c3ccc(Br)cc23)C1`, which EC50 [1] is on record?
A: Its EC50 is greater than 51.8 µM.

Q: And the CC50 at 120 h [2]?
A: The CC50 at 120 h was 51.8 µM.

Q: What about the Activity [3] of the same molecule?
A: Its Activity is “inactive”.

Q: For `Cc1cc(/C=C/C#N)cc(C)c1Nc1ccnc(Nc2ccc(C#N)cc2)n1` [RILPIVIRINE], which EC50 [1] is on record?
A: Its EC50 is 0.01 µM.

Q: For `C=CC(=O)NC1CCN(S(=O)(=O)c2c(C(N)=O)[nH]c3ccc(Br)cc23)CC1`, which EC50 [1] is on record?
A: Its EC50 is 125 µM.

Q: What about the CC50 at 120 h [2] of the same molecule?
A: The CC50 at 120 h was greater than 274 µM.

Q: What about the Activity [3] of the same molecule?
A: Its Activity is “inactive”.

Q: What does the source list for `O=C1Nc2ccc(Cl)cc2[C@@](C#CC2CC2)(C(F)(F)F)O1` [EFAVIRENZ]?
A: CC50 at 120 h [2]: > 6.3 µM; Activity [3]: inactive

Q: For `C=CC(=O)N[C@@H]1CCN(S(=O)(=O)c2c(C(N)=O)[nH]c3ccc(Br)cc23)C1`, which EC50 [1] is on record?
A: The EC50 was greater than 178 µM.

Q: And the CC50 at 120 h [2]?
A: Its CC50 at 120 h is 178 µM.

Q: And the Activity [3]?
A: The Activity was “inactive”.

Q: What does the source list for `C=CC(=O)N1CCC[C@@H](NS(=O)(=O)c2c(C(N)=O)[nH]c3ccc(Br)cc23)C1`?
A: EC50 [1]: > 43.6 µM; CC50 at 120 h [2]: 43.6 µM; Activity [3]: inactive

Q: For `NC(=O)c1[nH]c2ccc(Br)cc2c1S(=O)(=O)N1CCCC1`, which EC50 [1] is on record?
A: The EC50 was 3.6 µM.

Q: What about the CC50 at 120 h [2] of the same molecule?
A: Its CC50 at 120 h is 35.3 µM.

Q: And the Activity [3]?
A: Its Activity is “inactive”.

Q: What about the IC50 [4] of the same molecule?
A: The IC50 was 0.48 µM.

Q: Which EC50 [1] does the source give for `Cc1cc(C#N)cc(C)c1Oc1nc(Nc2ccc(C#N)cc2)nc(N)c1Br` [ETRAVIRINE] here?
A: Its EC50 is 0.01 µM.
